Results on two compounds are retold here after patent US8476414B2, “Substrates and internal standards for mass spectrometry detection” (PerkinElmer Health Sciences, Inc., priority 2006, dated 2013).

The target in series [1] is T1, acid α-galactosidase A (GLA) (Homo sapiens, UniProt P06280).
T1 construct: from tissue
T1 sequence (P06280 32-429): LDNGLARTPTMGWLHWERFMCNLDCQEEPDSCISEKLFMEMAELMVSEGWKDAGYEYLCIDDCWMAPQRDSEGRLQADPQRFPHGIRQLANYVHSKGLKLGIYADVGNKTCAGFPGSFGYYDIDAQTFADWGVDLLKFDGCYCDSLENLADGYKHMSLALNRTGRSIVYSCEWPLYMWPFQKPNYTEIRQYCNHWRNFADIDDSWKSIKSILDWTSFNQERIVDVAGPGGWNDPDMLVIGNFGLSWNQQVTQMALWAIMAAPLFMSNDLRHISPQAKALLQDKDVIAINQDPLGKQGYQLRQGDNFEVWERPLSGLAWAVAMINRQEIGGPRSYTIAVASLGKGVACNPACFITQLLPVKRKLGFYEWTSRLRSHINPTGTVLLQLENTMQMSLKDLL
In words: Dried blood spot enzyme assay with Fabry substrate, tandem mass spectrometry detection of the enzymatic product. It counts as biochemical. To be noted: with dried blood sample, 15 to 24 hours at 37° Celsius, sodium acetate pH 4.6. How it is done:
(§1) For each sample, a disk of 3 mm diameter is punched from the areas of dried blood on a filter paper into a micro-centrifuge tube or a well of a 96-well microtiter plate. The blood disk is then incubated directly with an assay solution containing a substrate directed to the Fabry disease. The assay solution is prepared by mixing a 10 mM solution of substrate (4-(Hexadecanoyl-DL-carnitineamido)phenyl-α-D-galactopyranoside), a 1 mM solution of the internal standard for the enzymatic product (4-(Hexadecanoyl-DL-carnitine[C16-d3]amido)phenol), a 1 M solution of Acetylgalactosamine, and a 0.4 M solution of sodium acetate pH 4.6 buffer in a 8:1:3:38 ratio. The assay mixture containing the blood disk is incubated for 15 to 24 hours at 37° Celsius with orbital shaking (150 rpm) in a thermostatic air shaker. After the incubation period, an aliquot of pure methanol (without the use of chloroform) is added to each tube or well to terminate the enzymatic reaction. Before going into the mass spectrometer, an aliquot of the incubated aliquot is diluted in pure methanol. For the mass spectrometry analysis, the electrospray source is operated in positive mode, and the ions are detected in the parent ion of 176 scan mode. The amount of enzymatic product is calculated from the ion abundance ratio of the product to the internal standard minus that of a blank.

Series [2] in a line: Non-enzymatic hydrolysis of substrate in blank sample not containing blood, processed as the dried blood spots. It counts as physicochemical. The following applies: blank without blood, same assay solution and processing. How it is done:
as §1, with “After the incubation period, an aliquot of pure methanol (without the use of chloroform) is added to each tube or well to terminate the enzymatic reaction. Before going into the mass spectrometer, an aliquot of the incubated aliquot is diluted in pure methanol.” left out
The […] chain for this particular example was chosen to contain 10 carbons and thus decanoyl-carnitine was used in the synthesis of the substrate. […] The final sample solutions were analyzed on a Waters Quattro Micro ESI-triple quadrupole tandem mass spectrometer using a parent ion of 176 scan. […]

The test system of series [3] is acid α-glucosidase (GAA). In words: Dried blood spot enzyme assay with Pompe substrate, tandem mass spectrometry detection of the enzymatic product. It counts as biochemical, human. To be noted: pH 3.98.
Method: An enzymatic reaction using a substrate directed to Pompe disease and the mass spectrometry analysis thereafter is carried out using the method specified in Example 1 with the following exceptions that sodium citrate was used as buffer. The assay solution for Example 2 was prepared by mixing a buffer solution (0.2 M sodium citrate/sodium phosphate, pH 3.98), a solution of 8 mM Acarbose, a solution of 10 mM substrate (4-Decanoyl-DL-carnitineamido)phenyl-α-D-glucopyranoside), and a solution of 1.0 mM internal standard (4-Decanoyl-DL-carnitine[C10-d3]amido)phenol) in a 93:1:4:2 ratio. The rest of the procedure is as indicated in Example 1.
In addition a blank filter paper sample not containing blood was processed following the same procedure as the dried blood spots. The same assay solution containing buffers, substrates, inhibitors and internal standards was used for all three samples. Therefore, all samples received the same concentration of reagents. The final sample solutions were analyzed on a Waters Quattro Micro ESI-triple quadrupole tandem mass spectrometer using a parent ion of 176 scan. The predominant peaks shown in the spectra are those corresponding to the intact substrate, internal standard and corresponding enzymatic product. […]

As for `CCCCCCCCCCCCCCCC(=O)OC(CC(=O)Nc1ccc(O[C@H]2O[C@H](CO)[C@H](O)[C@H](O)[C@H]2O)cc1)C[N+](C)(C)C` (mixture of isomers) [substrate directed to Fabry disease, 4-(Hexadecanoyl-DL-carnitineamido)phenyl-α-D-galactopyranoside], in series [1], the “enzymatic product of the substrate detected by MS/MS” value was “significant amount”. In series [2], the “non-enzymatic substrate hydrolysis (product found in blank)” value is listed as “minimal amount”.
Consider `CCCCCCCCCC(=O)OC(CC(=O)Nc1ccc(O[C@H]2O[C@H](CO)[C@@H](O)[C@H](O)[C@H]2O)cc1)C[N+](C)(C)C` (mixture of isomers) [substrate directed to Pompe disease, 4-(Decanoyl-DL-carnitineamido)phenyl-α-D-glucopyranoside], for which the “conversion of substrate to product (abundance of product relative to internal standard)” value was “no noticeable substrate to product conversion” in series [3] (dried blood spot of confirmed Pompe positive newborn) and “highly noticeable” in series [3] (dried blood spot of healthy newborn). The “non-enzymatic substrate hydrolysis (product found in blank)” value in series [2] is given as “negligible”.
